Experiments:
[1] = Stability of deprenyl as a function of the pH of the medium; assay type: physicochemical; settings: pH about 3-5 versus pH about 7
Text: The stability of deprenyl can be affected by the pH of the medium in which the deprenyl is formulated. […] Therefore, when formulating a deprenyl compound in a pharmaceutical composition, it is preferred that the deprenyl compound be maintained at a suitable pH. In preferred embodiments, a pharmaceutical composition of the invention has a pH in the range of about 3 to about 5, more preferably about 3 to about 4. Furthermore, ethyl alcohol is a preferred solvent for improving stability of deprenyl. Thus, in certain embodiments, alcoholic or aqueous alcoholic media are preferred for the pharmaceutical compositions of the invention.

[2] = test system: cell death; experiment: Animal and cell-culture studies of prevention of cell death with the P450 inhibitor Proadifen; settings: co-administration of the P450 inhibitor Proadifen
Text: It is believed that certain deprenyl compounds can be at least partially metabolized in vivo after administration to a subject. For example, (−)-deprenyl can be metabolized by the liver to (−)-desmethyldeprenyl, as well as (−)-methamphetamine and (−)-amphetamine, after oral administration. The hepatic metabolism of (−)-deprenyl can be inhibited by administration of a P450 inhibitor such as Proadifen. […] It is presently believed that (−)-methamphetamine and (−)-amphetamine are inhibitors of the cell-rescuing activity of deprenyl compounds. […] Absence of MAO inhibitor activity may in fact provide a drug with fewer side effects.

[3] = test system: retinal ganglion cells projecting to the superior colliculus (RGC^SCs) / RGCL neuronal cell bodies; experiment: Optic nerve crush in rats: counts of Nissl-stained and Fluoro-Gold-labelled cell bodies in the retinal ganglion cell layer; assay type: in vivo; settings: for counts of RGCL neuronal cell bodies (RGCLncbs) per mm length of retinal cross-section: Nissl stain, FIG. 1
Text: All animals were handled according to the Declaration of Helsinki and The Guiding Principles in the Care and Use of Animals. […] The injections were delivered from a 10 microliter Hamilton syringe over a period of fifteen minutes.
It has been reported that 40-50% of the neurons whose cell bodies are located in the retinal ganglion cell layer (RGCL) of the rat send an axon to the optic nerve and are RGCs (Cowey et al. (1979) Exp. Brain Res. 35, 457-64; Perry V. H. (1981) Neuroscience 6, 931-44: and Linden et al. (1989) Brain Res. 272, 145-149). […] Most RGCs (>95%) in rats send their axons to the SC with as many as 10% also sending branches to the lateral geniculate body (Cowey et al. (1979) Exp. Brain Res. 35, 457-64).
Four days were allowed for the retrograde transport of the FG to the RGC^SCs cell bodies and then the left optic nerve of the rats was exposed and crushed by applying the tips of Dumont number 5 forceps to the nerve immediately behind the globe for ten seconds. Careful attention was used to avoid the central retinal artery. Each nerve was crushed three times at the same site. Following the crushes, the nerve was examined with the aid of an operating microscope to ensure that the axonal component of the nerve was divided into two clearly separated stumps surrounded by an unbroken dural sheath. Retinal artery patency was confirmed by direct ophthalmoscopy.
One group of eight rats received (−)-deprenyl (1 mg/kg) by intraperitoneal (IP) injection every two days for a fourteen day period beginning at the time of optic nerve crush. The remaining group of eight rats received IP injections of saline on the same schedule. Fourteen days after the optic nerve crush all sixteen rats were euthanized with an overdose of somnotol and perfused transcardially with 4% paraformaldehyde in phosphate buffer. The brains and retinas were immersed in 20% sucrose for twenty four hours and then frozen in −70 degrees C methylbutane. Serial […] sections were cut through the upper brain stem and diencephalon of the animals and viewed under fluorescence microscopy to determine the location and extent of the stereotactic injections of FG. Serial […] sections of the retinas were cut and every third section was Nissl stained. In order to detect even low level FG fluorescence in neuronal cell bodies or processes, the FG labelled brain sections and the retinal sections were examined with the aid of a Hamarmatsu intensification camera that allowed the fluorescent images to be digitized using a Matrox frame grabber controlled by image analysis software (Universal Metamorph). This allowed for the creation of computer images of neuronal cell bodies containing FG in the sections taken from areas of the stereotactic injections and sections taken through each of the retinas.
About 25 sections were chosen randomly from the serial sections taken from each retina. Sections were only chosen from the middle 70% of the serial sections where section length exceeded 6 mm. Nissl stained cell bodies in the RGCL were counted at 1000× magnification under oil immersion on a Leitz Orthoplan microscope. RGCL somata were only counted if they contained a well defined nucleus. The cross sectional length of the ganglion cell layer for each section was measured by transferring the retinal section image into a computer using a CCD camera (Dage Ltd.) and IPPLUS 2.1 software (Media Cybernetics). The number of RGCL neuronal cell bodies (RGCLncbs) per mm length of retinal crossection was calculated and were pooled for each of the four lesion/treatment groups (uncrushed-saline, uncrushed-deprenyl, crushed-saline and crushed-deprenyl).
A similar group of sections were randomly chosen from one of the two remaining series of retinal sections. […]

Compound | stability depending on pH of the medium [1] | effect of Proadifen on cell-rescuing activity (prevention of cell death) [2] | counts of RGCL neuronal cell bodies (RGCLncbs) per mm length of retinal cross-section ([3]; crushed optic nerve, 14 days after crush, (−)-deprenyl 1 mg/kg IP every two days) | RGC^SCs as percentage of the mean value of the distribution for the uncrushed saline retinas ([3]; crushed optic nerve, 14 days, crushed saline 3.0%, FIG. 3) | numbers of neuronal cell bodies/mm in the RGCL as average percent of those in uncrushed saline retinae ([3]; crushed optic nerve, 14 days, crushed saline 46%) | slope of FG labelled versus Nissl stained cell body counts ([3]; crushed retinas, FIG. 2) | mean ratio of FG labelled to Nissl stained somata ([3]; crushed retinas, crushed saline 0.003) | survival of RGCs at fourteen days ([3]; crushed retinas, estimated assuming 40-50% of RGCL neurons do not send axons to the optic nerve, crushed saline less than 10%) | counts of RGCL neuronal cell bodies (RGCLncbs) per mm length of retinal cross-section ([3]; uncrushed optic nerve, (−)-deprenyl 1 mg/kg IP every two days for 14 days)
C#CCN(C)C(C)Cc1ccccc1 (single isomer, unassigned; (-)) [(−)-deprenyl, N,α-dimethyl-N-2-propynylphenethylamine] | more stable at a pH in the range of about 3-5 than at a pH of about 7 | Proadifen reduces the ability of (−)-deprenyl to prevent cell death | 32.60+/−9.94 | 36.9+/−11.2% | 65% | 0.219+/−0.019 | 0.245+/−0.055 | 30-40% | 48.39+/−8.48 /mm
C#CCN[C@H](C)Cc1ccccc1 [(−)-desmethyldeprenyl] |  | does not block the cell-rescuing activity |  |  |  |  |  |  | 

Source: patent US6455590B1, “Deprenyl compounds for treatment of glaucoma” (University of Toronto Innovations.Foundation, priority 1995, dated 2002)
